Assay results from patent EP0850950A1, “PEPTIDE DERIVATIVES” (DAIICHI PHARMACEUTICAL CO., LTD., priority 1995, dated 1998).

Test system: Mice
Assay: analgesic activity by pressure stimulation method (tail base)
Assay type: in vivo
Conditions: percent of maximum possible effect, maximum stimulating pressure 100 mmHg; for MPE(%) 1 mg/kg s.c. (%): 1 mg/kg subcutaneous administration (skin in the backs); for MPE(%) 10 mg/kg p.o.(%): 10 mg/kg oral administration
Procedure: The analgesic activities of the peptide derivatives of the present invention were evaluated by pressure stimulation method. Mice were subjected to pressure stimulation at the bases of their tails at a rate of 10 mmHg/second. […] For the experiments, mice that were preliminarily determined to respond to a pressure of 40-50 mmHg were used. The maximum stimulating pressure was 100 mmHg. Analgesic activity was calculated as percent of maximum possible effect (% of MPE) according to the following equation: % of MPE =(Pt - Po)/(Pc - Po)× 100 [formula] wherein Po is the pain reaction threshold before the administration of a drug; Pt is the pain reaction threshold "t" minutes after the administration of the drug; and Pc is the maximum stimulating pressure. The results of analgesic activity obtained from subcutaneous administration (skin in the backs) and oral administration are shown in Table 1.

SMILES | MPE(%) 1 mg/kg s.c. (%) | MPE(%) 10 mg/kg p.o.(%)
CN(CCC(=O)O)C(=O)[C@H](Cc1ccc(O)cc1)NC(=O)[C@@H](CCCNC(=N)N)NC(=O)[C@H](Cc1ccc(O)cc1)NC(=N)N [Example 25, H2NC(NH)-Tyr-D-Arg-Tyr-MeβAla-OH·diacetate] | 22.55 | 10.96
CN(CCC(=O)O)C(=O)[C@H](CC1CCCCC1)NC(=O)[C@@H](CCCNC(=N)N)NC(=O)[C@H](Cc1ccc(O)cc1)NC(=N)N [Example 27, H2NC(NH)-Tyr-D-Arg-Cha-MeβAla-OH·diacetate] | 52.14 | 33.15
CN(CCC(=O)O)C(=O)[C@H](Cc1ccccc1)NC(=O)[C@@H](CCCNC(=N)N)NC(=O)[C@H](Cc1ccc(O)c(O)c1)NC(=N)N [Example 4, H2NC(NH)-DOPA-D-Arg-Phe-MeβAla-OH·diacetate] | 70.85 | 18.11
CC(=N)N[C@@H](Cc1ccc(O)cc1)C(=O)N[C@H](CCCCN)C(=O)N[C@@H](Cc1ccccc1)C(=O)N(C)CCC(=O)O [Example 19, H3C-C(NH)-Tyr-D-Lys-Phe-MeβAla-OH·diacetate] | 87.11 | 82.29
CC(=N)NC[C@@H](NC(=O)[C@H](Cc1ccc(O)cc1)NC(=N)N)C(=O)N[C@@H](Cc1ccccc1)C(=O)N(C)CCC(=O)O [Example 32, H2NC(NH)-Tyr-D-IEPR-Phe-MeβAla-OH·diacetate] | 66.61 | 52.72
CN(CCC(=O)O)C(=O)[C@H](Cc1ccccc1)NC(=O)[C@@H](CCNC(=N)N)NC(=O)[C@H](Cc1ccc(O)cc1)NC(=N)N [Example 10, H2NC(NH)-Tyr-(R)-AGBA-Phe-MeβAla-OH·diacetate] | 42.78 | 10.62
Cc1cc(O)cc(C)c1C[C@H](NC(=N)N)C(=O)N[C@H](CCCNC(=N)N)C(=O)N[C@@H](Cc1ccccc1)C(=O)N(C)CCC(=O)O [Example 2, H2NC(NH)-DMT-D-Arg-Phe-MeβAla-OH·diacetate] | 93.47 | 22.78
CC(=N)N[C@@H](Cc1ccc(O)cc1)C(=O)N[C@H](CC[S+](C)[O-])C(=O)N[C@@H](Cc1ccccc1)C(=O)N(C)CCC(=O)O (stereo partly drawn) [Example 31, H3C-C(NH)-Tyr-D-AMSB-Phe-MeβAla-OH·acetate] | 100 | 96.18
CC(=N)NCCC[C@@H](NC(=O)[C@H](Cc1ccc(O)cc1)NC(=N)N)C(=O)N[C@@H](Cc1ccccc1)C(=O)N(C)CCC(=O)O [Example 17, H2NC(NH)-Tyr-(R)-IEPE-Phe-MeβAla-OH·diacetate] | 100 | 88.34
CN(CCC(=O)O)C(=O)[C@H](CCc1ccccc1)NC(=O)[C@@H](CCCNC(=N)N)NC(=O)[C@H](Cc1ccc(O)cc1)NC(=N)N [Example 26, N-H2NC(NH)-Tyr-D-Arg-APBA-MeβAla-OH·diacetate] | 32.83 | 14.44
